In US20230240297A1, “SELECTIVE HERBICIDES BASED ON SUBSTITUTED ISOXAZOLIN CARBOXAMIDES AND CYPROSULFAMIDE” (Bayer Aktiengesellschaft, priority 2020, published 2023):

Tests used:
ZEAMA Sileno [1] = test: Tank-mix; post-emergence, crop damage with and without safener; format: in vivo, maize; settings: for HER effect + SAF / HER effect: Final assessment; for HER effect: no safener
Description: Seeds of crops (spring wheat, TRZAS; spring barley, HORVS; maize, ZEAMA) were placed in sandy loam soil in peat pots, covered with soil and cultivated in a greenhouse under good growth conditions. Two to three weeks after sowing, the test plants were treated at the 1 to 3-leaf stage. The herbicide/safener active compound combinations according to the invention, formulated as wettable powders or emulsion concentrates, and, in parallel tests, the correspondingly formulated individual active compounds were sprayed onto the green parts of the plants in various dosages using an amount of water of 300 1/ha (converted).
The pots were returned under good growing conditions in a glasshouse and a visual assessment of herbicidal effects was made at intervals from 1 to 3 weeks after herbicide application (DAT = days after treatment). Assessment was on a percentage basis in comparison with untreated control plants (0% = no injury, 100% = complete kill).

ZEAMA Sileno [2] = test: Seed treatment with safener; post-emergence herbicide application; format: in vivo, maize; design: Reduction [Difference]: scale not given here; settings: Final assessment; for Reduction [%] / Reduction [Difference]: Cyprosulfamide 0.5 g a.i./kg seed; for Reduction [Difference]: damage without safener - damage with safener; for HER effect + SAF (crop damage with safener): Cyprosulfamide seed treatment 0.5 g a.i./kg seed; for HER effect (crop damage, herbicide without safener): no safener
Description: For the safener seed treatment, sufficient seeds of the respective crops (spring wheat, TRZAS; spring barley, HORVS; maize, ZEAMA) were weighed into screw top glass bottles approximately twice the volume of the seeds.
The specified safeners, formulated as wettable powder (WP) were weighed out so that the specified rates (g a.i./kg seed) would be obtained, dissolved in water (1 ml water per 10 g of seeds), and added to the seeds to produce a slurry.
The bottles were capped and then placed in an overhead shaker (set at medium speed for ca. 60 minutes) so that the seeds were evenly coated with the slurry. The bottles were uncapped and the seeds were either placed on paper and dried for an interval of 3-4 hours prior to sowing, or directly sown. Seeds were placed in sandy loam soil in pots of a diameter of 7-8 cm, covered with soil, and cultivated in a greenhouse under good growth conditions.
Post-emergence application of the specified herbicides was done when the plants had reached growth stage BBCH11-13, on two sets of plants:
a) seed treatment with safener, as described above b) no safener treatment
The herbicides were formulated as WP and sprayed onto the green parts of the plants as an aqueous suspension at an equivalent water application rate of 300 1/ha, with addition of wetting agent and adjuvants (e.g. Mero, 1.5 1/ha; ammonium sulphate, 2 kg/ha)
After application, the test plants were kept in the greenhouse under good growth conditions.
Values in the table below are mean values of at least 2 replicates.

[3] = HER 8 g a.i./ha, cyprosulfamide 50 g a.i./ha
[4] = HER 32 g a.i./ha, cyprosulfamide 100 g a.i./ha
[5] = HER dose 8 g a.i./ha + cyprosulfamide 50 g a.i./ha tank-mix
[6] = HER dose 32 g a.i./ha + cyprosulfamide 100 g a.i./ha tank-mix

SMILES | Reduction [%] (ZEAMA Sileno [1]; [3]) | Reduction [Difference] (ZEAMA Sileno [1]; [3]) | Reduction [%] (ZEAMA Sileno [1]; [4]) | Reduction [Difference] (ZEAMA Sileno [1]; [4]) | HER effect + SAF (ZEAMA Sileno [1]; [5]) | HER effect (ZEAMA Sileno [1]; HER dose 8 g a.i./ha) | HER effect + SAF (ZEAMA Sileno [1]; [6]) | HER effect (ZEAMA Sileno [1]; HER dose 32 g a.i./ha) | Reduction [%] (ZEAMA Sileno [2]; HER dose 8 g a.i./ha) | Reduction [Difference] (ZEAMA Sileno [2]; HER dose 8 g a.i./ha) | HER effect + SAF (crop damage with safener) (ZEAMA Sileno [2]; HER dose 8 g a.i./ha) | HER effect (crop damage, herbicide without safener) (ZEAMA Sileno [2]; HER dose 8 g a.i./ha) | Reduction [%] (ZEAMA Sileno [2]; HER dose 32 g a.i./ha) | Reduction [Difference] (ZEAMA Sileno [2]; HER dose 32 g a.i./ha) | HER effect + SAF (crop damage with safener) (ZEAMA Sileno [2]; HER dose 32 g a.i./ha) | HER effect (crop damage, herbicide without safener) (ZEAMA Sileno [2]; HER dose 32 g a.i./ha) | Reduction [%] (ZEAMA Sileno [2]; HER dose 2 g a.i./ha) | Reduction [Difference] (ZEAMA Sileno [2]; HER dose 2 g a.i./ha) | HER effect + SAF (crop damage with safener) (ZEAMA Sileno [2]; HER dose 2 g a.i./ha) | HER effect (crop damage, herbicide without safener) (ZEAMA Sileno [2]; HER dose 2 g a.i./ha) | other results
COC(=O)C1C=CC(NC(=O)C2(C)CC(c3cc(Cl)cc(C#N)c3)=NO2)C1 (mixture of isomers) [Example 1.23] | 60% | 30 | 67% | 47 | 20% | 50% | 23% | 70% | 100% | 50 | 0% | 50% | 96% | 67 | 3% | 70% |  |  |  |  | 
CCOC(=O)C1=CCC(NC(=O)C2(C)CC(c3cccc(F)c3)=NO2)C1 (mixture of isomers) [Example 1.59] | 100% | 20 | 90% | 60 | 0% | 20% | 7% | 67% | 100% | 20 | 0% | 20% | 85% | 57 | 10% | 67% |  |  |  |  | 
CC1(C(=O)NC2CC=C(C(=O)NS(C)(=O)=O)C2)CC(c2cc(F)cc(F)c2)=NO1 (mixture of isomers) [Example 1.61] |  |  |  |  |  |  |  |  | 57% | 47 | 35% | 82% | 44% | 40 | 50% | 90% |  |  |  |  | 
C=CC1(C(=O)NC2COC(C(=O)OCCOC)C2)CC(c2cc(F)cc(F)c2)=NO1 (mixture of isomers) [Example 1.66] | 76% | 73 | 54% | 52 | 23% | 96% | 45% | 97% | 100% | 96 | 0% | 96% | 97% | 94 | 3% | 97% | 100% | 33 | 0% | 33% | Reduction [%] (ZEAMA Sileno [1]; HER 2 g a.i./ha, cyprosulfamide 50 g a.i./ha): 79%; Reduction [Difference] (ZEAMA Sileno [1]; HER 2 g a.i./ha, cyprosulfamide 50 g a.i./ha, damage without safener - damage with safener): 26; HER effect + SAF (ZEAMA Sileno [1]; HER dose 2 g a.i./ha + cyprosulfamide 50 g a.i./ha tank-mix): 7%; HER effect (ZEAMA Sileno [1]; HER dose 2 g a.i./ha, 0% = no injury, 100% = complete kill): 33%
C=CCOC(=O)C1CC(NC(=O)C2(C)CC(c3cc(F)cc(F)c3)=NO2)CO1 (mixture of isomers) [Example 1.75] | 62% | 45 | 66% | 58 | 28% | 73% | 30% | 88% | 100% | 73 | 0% | 73% | 89% | 78 | 10% | 88% |  |  |  |  | 
C=CC1(C(=O)NC2COC(C(=O)OCCCl)C2)CC(c2cc(F)cc(F)c2)=NO1 (mixture of isomers) [Example 1.82] |  |  |  |  |  |  |  |  | 89% | 83 | 10% | 93% | 84% | 77 | 15% | 92% | 100% | 28 | 0% | 28% | 
C=CCOC(=O)C1CC(NC(=O)C2(C=C)CC(c3cc(F)cc(F)c3)=NO2)CO1 (mixture of isomers) [Example 1.83] | 73% | 45 | 73% | 62 | 17% | 62% | 23% | 85% | 100% | 62 | 0% | 62% | 96% | 82 | 3% | 85% |  |  |  |  | 
COC(=O)C1(C)CC(NC(=O)C2(C(C)(F)F)CC(c3cc(F)cc(F)c3)=NO2)CO1 (mixture of isomers) [Example 1.94] | 89% | 81 | 76% | 71 | 10% | 91% | 23% | 94% | 100% | 91 | 0% | 91% | 93% | 87 | 7% | 94% |  |  |  |  | 
COCCOC(=O)C1C=CC(NC(=O)C2(C(F)(F)F)CC(c3cc(F)cc(C#N)c3)=NO2)C1 (stereo not shown) [Example 1.2] | 44% | 40 | 48% | 46 | 50% | 90% | 50% | 96% | 89% | 80 | 10% | 90% | 81% | 78 | 18% | 96% |  |  |  |  | 
COCCOC(=O)C1C=CC(NC(=O)C2(C)CC(c3cc(Cl)cc(C#N)c3)=NO2)C1 (stereo not shown) [Example 1.5] | 55% | 47 | 50% | 48 | 38% | 85% | 48% | 96% | 88% | 75 | 10% | 85% | 79% | 76 | 20% | 96% | 100% | 23 | 0% | 23% | 
